Reference: the supplement of paper PMC11061612

Columns and labels:
Experiment in all cases: Bliss excess, mean over the matrix (fraction); higher = more synergy
[1] = tested on: BHT-101 (Thyroid Gland Carcinoma)
Summary of the method: (§1)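 After 24 hours at 37°C and 5% CO2 in 1536-well plates, cells in DMEM/F12 or RPMI plus 10% FBS received two-drug dose matrices for 72 hours. Viability came from CellTiter-Glo 2.0 luminescence and was scaled as inhibition, anchored at 0 by vehicle wells and at 1 by blank wells. Combination Emax is taken as the second-highest inhibition in the matrix, and Bliss excess as the observed combination effect less EA + EB − EA·EB, with EA and EB the single-agent effects.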

[2] = tested on: C-33-A (Cervical Carcinoma)
Summary of the method: as §1

[3] = tested on: COR-L88 (Small Cell Lung Carcinoma)
Summary of the method: as §1

[4] = tested on: CPC-N (Small Cell Lung Carcinoma)
Summary of the method: as §1

[5] = tested on: HT-1080 (Other Solid Carcinomas)
Summary of the method: as §1

KALS-1 (Glioblastoma) = tested on: KALS-1 (Glioblastoma)
Summary of the method: as §1

[6] = tested on: LCLC-103H (Non-Small Cell Lung Carcinoma)
Summary of the method: as §1

[7] = tested on: MDA-MB-415 (Breast Carcinoma)
Summary of the method: as §1

[8] = tested on: MOLP-8 (Plasma Cell Myeloma)
Summary of the method: as §1

[9] = tested on: MOLT-13 (T-Lymphoblastic Leukemia)
Summary of the method: as §1

[10] = tested on: NCI-H1963 (Small Cell Lung Carcinoma)
Summary of the method: as §1

[11] = tested on: P30-OHK (B-Lymphoblastic Leukemia)
Summary of the method: as §1

[12] = tested on: PA-TU-8988T (Pancreatic Carcinoma)
Summary of the method: as §1

[13] = tested on: SCC-4 (Oral Cavity Carcinoma)
Summary of the method: as §1

SK-N-SH (Neuroblastoma) = tested on: SK-N-SH (Neuroblastoma)
Summary of the method: as §1

[14] = tested on: SKG-IIIa (Cervical Carcinoma)
Summary of the method: as §1

[15] = tested on: SNU-C2B (Colorectal Carcinoma)
Summary of the method: as §1

T47D (Breast Carcinoma) = tested on: T47D (Breast Carcinoma)
Summary of the method: as §1

[16] = tested on: TUR (Acute Myeloid Leukemia)
Summary of the method: as §1

WM35 (Melanoma) = tested on: WM35 (Melanoma)
Summary of the method: as §1

SMILES | Bliss excess [1] | Bliss excess [2] | Bliss excess [3] | Bliss excess [4] | Bliss excess [5] | Bliss excess (KALS-1 (Glioblastoma)) | Bliss excess [6] | Bliss excess [7] | Bliss excess [8] | Bliss excess [9] | Bliss excess [10] | Bliss excess [11] | Bliss excess [12] | Bliss excess [13] | Bliss excess (SK-N-SH (Neuroblastoma)) | Bliss excess [14] | Bliss excess [15] | Bliss excess (T47D (Breast Carcinoma)) | Bliss excess [16] | Bliss excess (WM35 (Melanoma))
Cc1cc2ncnn2cc1Nc1ncc2c(n1)n(C1CCOCC1)c(=O)n2C [AZD7648] + CN(C)CCCOc1ccc(-c2ccc3ncc4c(c3c2)n(C2CCOCC2)c(=O)n4C)cn1 [AZD0156] (first compound max 10 µM, 7x7, partner max 1 µM) | 0.0659 | 0.033 | -0.0326 | 0.0326 | -0.0246 | 0.015 | -0.0422 | -0.0254 | 0.0712 | 0.0053 | 0.0494 | 0.0194 | 0.0174 | -0.0164 | -0.0046 | -0.0195 | -0.0251 | 0.0055 | 0.0283 | -0.0123
Cc1cc2ncnn2cc1Nc1ncc2c(n1)n(C1CCOCC1)c(=O)n2C [AZD7648] + C[C@@H]1COCCN1C2=NC(=NC(=C2)C3(CC3)[S@](=N)(=O)C)C4=C5C=CNC5=NC=C4 [AZD6738] (first compound max 10 µM, 7x7, partner max 10 µM) | 0.0197 | 0.007 | 0.0291 | -0.0013 | -0.0459 | 0.0135 | 0.042 | 0.0354 | 0.0234 | -0.0154 | 0.0138 | 0.0253 | 0.003 | -0.025 | 0.0026 | 0.0412 | -0.0036 | 0.0444 | 0.0024 | 0.0113
Cc1cc2ncnn2cc1Nc1ncc2c(n1)n(C1CCOCC1)c(=O)n2C [AZD7648] + O=C(c1cc(Cc2n[nH]c(=O)c3ccccc23)ccc1F)N1CCN(C(=O)C2CC2)CC1 [Olaparib] (first compound max 10 µM, 7x7, partner max 10 µM) | -0.0071 | -0.0107 | -0.0432 | 0.0169 | -0.0165 | -0.0225 | -0.0374 | -0.0121 | -0.0267 | 0.0242 | -0.0052 | 0.0285 | -0.0047 | -0.0422 | 0.0056 | -0.0678 | -0.0432 | -0.042 | 0.0054 | -0.0239
NC1(C(=O)N[C@@H](CCO)c2ccc(Cl)cc2)CCN(c2ncnc3[nH]ccc23)CC1 [Capivasertib] + CC(=O)c1c(C)c2cnc(Nc3ccc(N4CCNCC4)cn3)nc2n(C2CCCC2)c1=O [Palbociclib] (first compound max 10 µM, 7x7, partner max 10 µM) | -0.0022 | -0.042 | -0.0113 | -0.0448 | -0.0779 | -0.0379 | -0.0146 | -0.0234 | 0.0115 | 0.0311 | -0.0584 | 0.0689 | -0.0168 | -0.007 | 0.0041 | -0.0489 | -0.16 | -0.0115 | 0.0128 | 0.01
NC1(C(=O)N[C@@H](CCO)c2ccc(Cl)cc2)CCN(c2ncnc3[nH]ccc23)CC1 [Capivasertib] + CC(C)n1c(=O)n(C)c2cnc3cc(F)c(-c4ccc(OCCCN5CCCCC5)nc4)cc3c21 [AZD1390] (first compound max 10 µM, 7x7, partner max 0.3 µM) | -0.0197 | -0.0383 | -0.0746 | -0.0435 | -0.0504 | -0.054 | -0.0712 | -0.0297 | -0.0032 | -0.037 | -0.0615 | -0.0289 | -0.0434 | -0.045 | -0.0626 | -0.104 | -0.0775 | -0.0476 | -0.0704 | -0.0773
NC1(C(=O)N[C@@H](CCO)c2ccc(Cl)cc2)CCN(c2ncnc3[nH]ccc23)CC1 [Capivasertib] + CCN(CCO)CCCOc1ccc2c(Nc3cc(CC(=O)Nc4cccc(F)c4)[nH]n3)ncnc2c1 [AZD2811] (first compound max 10 µM, 7x7, partner max 1 µM) | -0.0124 | 0.0297 | -0.0738 | -0.0523 | -0.0498 | 0.0318 | -0.0032 | 0.0001 | 0.0345 | -0.0569 | -0.023 | -0.044 | 0.103 | -0.0671 | -0.0455 | -0.035 | -0.0032 | 0.071 | 0.0286 | -0.0471
NC1(C(=O)N[C@@H](CCO)c2ccc(Cl)cc2)CCN(c2ncnc3[nH]ccc23)CC1 [Capivasertib] + COc1nnc2ccc(N3CCC(c4ccc(OCCN5CCN(C)C(=O)[C@H]5C)cc4)CC3)nn12 [AZD5153] (first compound max 10 µM, 7x7, partner max 1 µM) | -0.0479 | 0.0321 | 0.0516 | -0.0348 | -0.0558 | -0.0749 | -0.0028 | 0.0467 | 0.0092 | -0.0111 | 0.0036 | 0.0358 | -0.0603 | 0.0043 | 0.0362 | 0.0067 | -0.0442 | 0.0139 | 0.0661 | -0.0195
NC1(C(=O)N[C@@H](CCO)c2ccc(Cl)cc2)CCN(c2ncnc3[nH]ccc23)CC1 [Capivasertib] + C[C@@H]1COCCN1C2=NC(=NC(=C2)C3(CC3)[S@](=N)(=O)C)C4=C5C=CNC5=NC=C4 [AZD6738] (first compound max 10 µM, 7x7, partner max 10 µM) | -0.0345 | -0.065 | -0.0456 | -0.0117 | -0.0473 | -0.074 | -0.0607 | -0.0516 | 0.0357 | -0.0387 | -0.0142 | 0.0468 | -0.0372 | -0.109 | -0.0576 | -0.0602 | 0.0158 | -0.0095 | -0.0398 | -0.02
NC1(C(=O)N[C@@H](CCO)c2ccc(Cl)cc2)CCN(c2ncnc3[nH]ccc23)CC1 [Capivasertib] + Cn1cnc2c(F)c(Nc3ccc(Br)cc3Cl)c(C(=O)NOCCO)cc21 [Selumetinib] (first compound max 10 µM, 7x7, partner max 10 µM) | 0.081 | 0.0513 | 0.0084 | -0.0381 | 0.0159 | 0.0079 | -0.0267 | 0.0162 | 0.121 | 0.0339 | 0.0023 | 0.0142 | 0.128 | 0.042 | -0.0223 | -0.0066 | -0.022 | -0.0108 | 0.0879 | 0.0104
Cc1nc(Nc2ncc(C(=O)Nc3c(C)cccc3Cl)s2)cc(N2CCN(CCO)CC2)n1 [Dasatinib] + CC(=O)Nc1cccc(-n2c(=O)n(C3CC3)c(=O)c3c(Nc4ccc(I)cc4F)n(C)c(=O)c(C)c32)c1 [Trametinib] (first compound max 2 µM, 7x7, partner max 1 µM) | 0.0569 | 0.0559 | -0.0239 | -0.0405 | 0.0472 | -0.0046 | 0.0201 | -0.0197 | 0.0159 | 0.0463 | 0.0078 | -0.0442 | 0.136 | -0.0042 | -0.0507 | -0.026 | -0.0275 | -0.0855 | -0.0919 | -0.0182
COc1cccc2c1C(=O)c1c(O)c3c(c(O)c1C2=O)C[C@@](O)(C(=O)CO)C[C@@H]3O[C@H]1C[C@H](N)[C@H](O)[C@H](C)O1 [Doxorubicin] + Cc1cc2ncnn2cc1Nc1ncc2c(n1)n(C1CCOCC1)c(=O)n2C [AZD7648] (first compound max 1 µM, 7x7, partner max 10 µM) | 0.0409 | 0.0531 | -0.0228 | 0.105 | 0.108 | 0.0571 | 0.0261 | -0.039 | 0.0396 | 0.209 | 0.1 | 0.129 | 0.0582 | 0.0176 | 0.0605 | 0.0086 | 0.0518 | -0.0004 | 0.119 | 0.0285
COc1cc2ncnc(Nc3ccc(F)c(Cl)c3)c2cc1OCCCN1CCOCC1 [Gefitinib] + CC(C)n1c(=O)n(C)c2cnc3cc(F)c(-c4ccc(OCCCN5CCCCC5)nc4)cc3c21 [AZD1390] (first compound max 10 µM, 7x7, partner max 0.3 µM) | -0.035 | -0.0656 | -0.0652 | -0.0369 | -0.0548 | -0.0471 | -0.0119 | -0.103 | -0.0584 | -0.0246 | -0.0526 | -0.0298 | -0.0342 | -0.059 | -0.0718 | -0.0991 | -0.06 | -0.0438 | -0.0185 | -0.0641
CS(=O)(=O)CCNCc1ccc(-c2ccc3ncnc(Nc4ccc(OCc5cccc(F)c5)c(Cl)c4)c3c2)o1 [Lapatinib] + C[C@@H](Oc1cc(-c2cnn(C3CCNCC3)c2)cnc1N)c1c(Cl)ccc(F)c1Cl [Crizotinib] (first compound max 10 µM, 7x7, partner max 10 µM) | -0.0399 | -0.0373 | -0.0234 | -0.0741 | -0.012 | -0.0378 | -0.0152 | -0.0417 | 0.012 | 0.0036 | -0.0272 | 0.0323 | -0.0244 | 0.0003 | -0.0618 | -0.0438 | -0.0515 | -0.0223 | -0.0168 | -0.0446
CC(=O)c1c(C)c2cnc(Nc3ccc(N4CCNCC4)cn3)nc2n(C2CCCC2)c1=O [Palbociclib] + CC1(C)CCC(CN2CCN(c3ccc(C(=O)NS(=O)(=O)c4ccc(NCC5CCOCC5)c([N+](=O)[O-])c4)c(Oc4cnc5[nH]ccc5c4)c3)CC2)=C(c2ccc(Cl)cc2)C1 [Venetoclax] (first compound max 10 µM, 7x7, partner max 1 µM) | -0.0607 | -0.0474 | -0.0764 | -0.0394 | -0.0573 | -0.0396 | -0.0083 | -0.0338 | 0.0278 | 0.112 | 0.226 | 0.126 | -0.0333 | -0.0637 | -0.0185 | -0.0667 | -0.036 | 0.0466 | 0.0153 | -0.0448
CC(=O)c1c(C)c2cnc(Nc3ccc(N4CCNCC4)cn3)nc2n(C2CCCC2)c1=O [Palbociclib] + Cc1c2c(nn1C)CSCc1cc(n(C)n1)CSc1cc(c3ccccc3c1)OCCCc1c(C(=O)O)n(C)c3c-2c(Cl)ccc13 [AZD5991] (first compound max 10 µM, 7x7, partner max 1 µM) | -0.0105 | -0.0163 | 0.0122 | 0.0035 | -0.0592 | -0.0609 | -0.0151 | -0.113 | 0.0347 | 0.0478 | -0.0047 | 0.0418 | -0.0361 | -0.0394 | -0.0257 | -0.0489 | -0.0477 | 0.0375 | -0.0441 | -0.0198
